Test results published in patent US20050226821A1, “Cosmetic formulations containing l-arginine oligomers” (priority 2002, published 2005).

Legend:
C57 black six mice = assay: Topical enhancement of hair growth after depilation, daily application for 14 days; format: in vivo; set-up: key to Hair Shaft Length, Comparison anova (95) vs. control / Follicle Area, Comparison anova (95) vs. control / Number of follicles per cross-section, Comparison anova (95) vs. control: **: significant by fisher PLSD and Scheffe F-test (P = 0.0001)
Description: A preparation of (L-arg)-(L-arg)-(L-arg)-(L-arg)-(L-arg)-(L-arg)-(L-arg)-(L-arg)-(L-arg) or [LR9] was obtained from Sigma Genosys at >70% purity. To achieve a therapeutic benefit on hair growth, a 10× stock of LR9 was prepared as 70 mg in 80 μl PBS. To 0.2 ml of Cetaphil moisturizer base was added the following: • LR9: 20 μl of 10× LR9 stock • Control: 20 μl PBS
After addition of LR9/PBS to moisturizer base, samples were mixed to homogeneity and stored at 4C overnight. C57 black six mice at 8 weeks of age were anesthetized with 3% isoflurane by inhalation, were shaved, and underwent depilation at mid-scapular dorsal region of 2 cm×2 cm with a rosin mixture (Surgiwax, Ardell, Commerce, Calif.) to induce the synchronized adolescent first hair cycle. Moisturizer was applied daily at 0.2 cc per day for either LR9 treatment or control for a fourteen day period at n=4 per group. After 14 days application the treated skin segment was harvested en bloc and subdivided into three equal portions: a cranial portion, a left lateral portion and a right lateral portion. The cranial portion and the left lateral portion were fixed in 10% neutral buffered formalin for 12-16 hours, then rinsed in 70% ethanol and embedded in paraffin. The right lateral portion was snap frozen in OCT medium at the time of harvest and stored at −35C until use.
Paraffin-embedded specimens were sectioned at 4-6 microns, deparaffinized, and stained with a combination of Verhoeff elastica stain and the Masson trichrome stain for morphological assessment of follicle area and number. Frozen samples underwent random hair pulls to determine hair shaft length. All procedures and analyses were performed by blinded observers. […] Images were analyzed using Image Pro Plus software (Media Cybernetics, Silver Spring, Md.) to determine total cross-sectional follicle area, follicle number, or hair length. Mean and standard error were assessed using Statview (Abacus Concepts, Berkeley, Calif.), with comparisons made using ANOVA repeated measures and significance determined at 95% with post-hoc testing using Fisher PLSD or Scheffe F-test.

human subjects = assay: Topical lip color and contour enhancement, image analysis of lip area after lip gloss application; format: in vivo; details: mean across 1, 5, 10, 15 and 30 minutes after application, Revlon Lip Gloss base
Description: A preparation of (L-arg)-(L-arg)-(L-arg)-(L-arg)-(L-arg)-(L-arg)-(L-arg)-(L-arg)-(L-arg) or [LR9] was obtained from Sigma Genosys at >70% purity. […], a 1× stock of LR9 for lip enhancement was prepared as 35 mg in 50 μl pbs, which was added to 2.0 ml of Revlon Lip Gloss base for the following groups: • LR9 • Control (base only)
After addition of LR9 to lip gloss base, samples were mixed to homogeneity and stored at room temperature overnight. After baseline image acquisition using a Minolta Dimage 7 digital camera set to 105 macro (1:1) with standard lighting and scaling conditions, human subjects underwent topical application of LR9 or control gloss. All participants were blinded with respect to treatment or control application. Additional digital micrographs were acquired at time 0, 1, 5, 10, 15, and 30 minutes after lip gloss application. The gloss was then removed and participants asked to record duration of any lip contour or color changes. Additionally, any complications (irritation, etc) were also tracked for each. Each subject was treated at different timepoints with both groups (treatment or control). Image analysis of total photographic area was performed for each group, with care taken to normalize each to scales included at the time of photograph acquisition. Baseline images (pre-application) were verified to have statistically similar values between pre-LR9 gloss and pre-base gloss applications for each participant. Mean and standard error across timepoints 1, 5, 10, 15, and 30 minutes were determined for each participant after LR9-gloss or base gloss application. Values for each as well as photos acquired at matching timepoints are presented by participant below for 3 participants. [drawing]

For “(L-arg)-(L-arg)-(L-arg)-(L-arg)-(L-arg)-(L-arg)-(L-arg)-(L-arg)-(L-arg) [LR9]”, the “Number of follicles per cross-section, Mean” value (C57 black six mice; 14 days topical) was 406.417, the “Hair Shaft Length, Mean” value (C57 black six mice; 14 days topical, 0.2 cc per day in Cetaphil moisturizer base, n=4, 1 pixel = 2.774 microns) was 1612.424 pixels and the “Follicle Area (by total x-sectional area), Mean” value (C57 black six mice; 14 days topical, 1 square pixel = 7.69 square microns) was 53546.00 square pixels. The “Follicle Area, Comparison anova (95) vs. control” value (C57 black six mice; 14 days, LR9 vs. control) was “**”, the “Hair Shaft Length, Comparison anova (95) vs. control” value (C57 black six mice; 14 days, LR9 vs. control) was “**” and the “Number of follicles per cross-section, Comparison anova (95) vs. control” value (C57 black six mice; 14 days, LR9 vs. control) was “**”. For the same substance, the “Hair growth as measured by hair shaft length, total follicle area, and number of hair follicles” value (C57 black six mice; without any additional transdermal delivery platform) was “statistically significantly enhance hair growth”, the “Mean Area” value (human subjects; first of 3 participants) was 7.745 sq. in and the “Mean Area” value (human subjects; second of 3 participants) was 7.411 sq. in. The “Mean Area” value (human subjects; third of 3 participants) was 7.911 sq. in.
